According to US11247970B2, “Selective inhibition of gluconeogenic activity” (Dana-Farber Cancer Institute, Inc., priority 2017, dated 2022):
Entries after “also recorded” stand apart in the source; their conditions may differ.

Key:
[1] = target: T1, PGC-1α (Mus musculus, UniProt O70343); assay: Western blot of PGC-1α acetylation in primary hepatocytes; type: cell-based; design: expressed in transfected cells; host or cells: primary hepatocytes of C57BL/6 mice infected with Ad-PGC-1α and Ad-GCN5
T1 sequence (O70343 1-797): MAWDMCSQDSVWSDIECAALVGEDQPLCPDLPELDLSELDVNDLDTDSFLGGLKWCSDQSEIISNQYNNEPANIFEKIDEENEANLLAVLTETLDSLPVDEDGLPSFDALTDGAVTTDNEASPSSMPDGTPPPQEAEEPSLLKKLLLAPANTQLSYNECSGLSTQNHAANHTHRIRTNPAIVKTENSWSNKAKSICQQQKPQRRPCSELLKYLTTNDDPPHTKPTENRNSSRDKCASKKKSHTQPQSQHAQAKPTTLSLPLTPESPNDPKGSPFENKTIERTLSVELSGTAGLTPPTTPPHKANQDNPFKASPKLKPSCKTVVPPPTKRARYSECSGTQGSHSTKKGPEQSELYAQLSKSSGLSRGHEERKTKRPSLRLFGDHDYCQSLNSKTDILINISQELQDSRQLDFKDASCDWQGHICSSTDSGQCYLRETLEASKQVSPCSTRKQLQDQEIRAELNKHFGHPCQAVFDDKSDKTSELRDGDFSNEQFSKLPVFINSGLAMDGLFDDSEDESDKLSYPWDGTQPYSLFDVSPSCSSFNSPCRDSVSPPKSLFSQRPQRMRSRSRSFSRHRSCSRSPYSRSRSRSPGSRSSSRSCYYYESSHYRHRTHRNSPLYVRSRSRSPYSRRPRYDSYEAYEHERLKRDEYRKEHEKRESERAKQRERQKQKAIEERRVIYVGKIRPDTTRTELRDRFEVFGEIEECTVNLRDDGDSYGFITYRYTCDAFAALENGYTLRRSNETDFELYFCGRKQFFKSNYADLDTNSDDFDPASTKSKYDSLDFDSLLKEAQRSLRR
Method: For measurement of acetylation, gene expression and glucose production SR-18292 ([…]) was added to cells overnight and fresh compound was added the following day for additional 3 h before collecting the cells (for total of ˜18 h treatment). Where insulin and glucagon stimulation were performed, the medium was changed to starvation medium (DMEM, 0.2% BSA, 2 mM sodium pyruvate, and 1% penicillin/streptomycin) with fresh compound for the last 3 h and cells were stimulated with either 100 nM insulin or 200 nM glucagon for an extra 1.5 h. For glucose measurements following PGC-1α over expression cells were incubated for the last 3 h in glucose-free medium (phenol-red/glucose free DMEM, 0.2% BSA, 2 mM sodium pyruvate and 20 mM sodium lactate or 10 mM glycerol in case glycerol was used as substrate). For glucose measurements following glucagon stimulation cells were incubated for the last 4 h in the same glucose-free medium that also contained glucagon (200 nM). The glucose level in the medium was measured using a glucose assay kit from Eton Bioscience Inc. by adding […] of assay buffer to […] of medium followed by 15 min incubation at 37° C. Absorbance was measured at 490 nm.
For PGC-1α acetylation detection in hepatocytes cells were infected with Ad-PGC-1α and Ad-GCN5. […]

[2] = target: T2, GCN5 (Homo sapiens, UniProt Q92830); assay: GCN5 HAT activity assay; type: biochemical; settings: H3 peptide
T2 construct: made in house; host or cells: U-2 OS cells overexpressing Ad-GCN5; FLAG immunoprecipitation, elution with 3×FLAG peptide
Method: For determination of GCN5 HAT activity U-2 OS cells overexpressing Ad-GCN5 were treated with SR-18292 ([…]) for 18 h. Cells were lysed with buffer B (20 mM HEPES-KOH (pH 7.9), 125 mM NaCl, 1 mM EDTA, 1 mM DTT, 1% IGEPAL (v/v), 10% glycerol (v/v), 5 mM NaF, 5 mM β-glycerophosphate, 5 mM sodium butyrate and 10 mM nicotinamide), supplemented with Protease Inhibitor Cocktail. FLAG-GCN5 was immunoprecipitated with FLAG beads overnight at 4° C. following multiple washes with lysis buffer. GCN5 was then eluted using 3×FLAG peptide and the purified protein was used to determine HAT activity using the HAT Inhibitor Screening Assay Kit (Cayman Chemicals) per manufacturer instructions. To determine the potential effect of SR-18292 on GCN5 activity in vitro, GCN5 was purified from U-2 OS cells in a similar manner but without treatment with SR-18292.

T2 sequence (Q92830 whole entry, species assumed): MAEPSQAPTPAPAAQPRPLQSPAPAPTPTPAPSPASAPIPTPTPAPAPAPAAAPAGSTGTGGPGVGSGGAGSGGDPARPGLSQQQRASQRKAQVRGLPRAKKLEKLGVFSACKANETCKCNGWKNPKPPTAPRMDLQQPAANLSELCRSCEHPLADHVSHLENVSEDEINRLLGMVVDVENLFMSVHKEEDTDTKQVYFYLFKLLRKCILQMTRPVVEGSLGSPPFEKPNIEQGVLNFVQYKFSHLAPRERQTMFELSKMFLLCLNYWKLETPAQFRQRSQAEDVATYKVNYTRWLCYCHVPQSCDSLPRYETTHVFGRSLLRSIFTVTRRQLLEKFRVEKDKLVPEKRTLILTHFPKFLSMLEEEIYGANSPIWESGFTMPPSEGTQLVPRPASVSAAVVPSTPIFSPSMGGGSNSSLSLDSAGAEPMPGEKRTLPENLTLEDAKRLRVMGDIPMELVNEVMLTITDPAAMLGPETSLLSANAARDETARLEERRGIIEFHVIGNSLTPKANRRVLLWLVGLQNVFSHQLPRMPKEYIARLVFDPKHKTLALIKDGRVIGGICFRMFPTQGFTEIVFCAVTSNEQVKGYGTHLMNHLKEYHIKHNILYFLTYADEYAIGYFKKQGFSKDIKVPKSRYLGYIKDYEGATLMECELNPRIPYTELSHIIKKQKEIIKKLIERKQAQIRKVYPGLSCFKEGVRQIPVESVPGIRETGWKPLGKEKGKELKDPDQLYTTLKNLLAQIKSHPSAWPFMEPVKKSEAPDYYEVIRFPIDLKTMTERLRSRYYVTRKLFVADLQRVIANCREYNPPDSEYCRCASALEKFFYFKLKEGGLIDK

**Q.** `Cc1ccc(CN(CC(O)COc2cccc3[nH]ccc23)C(C)(C)C)cc1` (stereo not shown) [SR-18292, 1-((1H-indol-4-yl)oxy)-3-(tert-butyl(4-methylbenzyl)amino)propan-2-ol] was tested. Which PGC-1α acetylation ([1]; primary hepatocytes, Ad-PGC-1α and Ad-GCN5, 18 h) did it give?
**A.** increased PGC-1α acetylation

**Q.** What about the “PGC-1α acetylation in presence of deacetylase inhibitors” value ([1]; with Ex-527 (SIRT1 inhibitor) and Trichostatin A) of the same molecule?
**A.** increased acetylation of PGC-1α even in the presence of Ex-527

**Q.** And the “catalytic (HAT) activity of GCN5 immunoprecipitated from treated cells” value ([2]; U-2 OS cells treated 18 h)?
**A.** not changed; also recorded: not increased

**Q.** What about the “GCN5 HAT activity on in vitro treatment of IPed GCN5” value ([2]; in vitro treatment) of the same molecule?
**A.** did not result in increased activity; also recorded: not affected
